# In ChEMBL document CHEMBL2401728, “An unexpected Dimroth rearrangement leading to annelated thieno[3,2-d][1,2,3]triazolo[1,5-a]pyrimidines with potent antitumor activity” (Eur J Med Chem, 2013):
# Key:
# Type in all cases: functional
# [1] = tested on: MCF7; assay: Cytotoxicity against human MCF7 cells after 48 hrs by SRB assay; settings: MCF7, 48 h
# [2] = tested on: NCI-H322M; assay: Cytotoxicity against human NCI-H322M cells assessed as cellular growth at 1 uM after 48 hrs by SRB assay relative to control
# [3] = tested on: UACC-257; assay: Cytotoxicity against human UACC257 cells assessed as cellular growth at 0.01 uM after 48 hrs by SRB assay relative to control
# [4] = tested on: T47D; assay: Cytotoxicity against human T47D cells assessed as cellular growth at 0.01 uM after 48 hrs by SRB assay relative to control
# [5] = tested on: HOP-92; assay: Cytotoxicity against human HOP92 cells assessed as cellular growth at 1 uM after 48 hrs by SRB assay relative to control
# [6] = tested on: M14; assay: Cytotoxicity against human M14 cells assessed as cellular growth at 1 uM after 48 hrs by SRB assay relative to control
# [7] = tested on: BT-549; assay: Cytotoxicity against human BT549 cells assessed as cellular growth at 0.1 uM after 48 hrs by SRB assay relative to control
# [8] = tested on: HL-60(TB); assay: Cytotoxicity against human HL-60(TB) cells assessed as cellular growth at 100 uM after 48 hrs by SRB assay relative to control
# [9] = tested on: A549; assay: Cytotoxicity against human A549 cells assessed as cellular growth at 0.01 uM after 48 hrs by SRB assay relative to control
# [10] = tested on: M14; assay: Cytotoxicity against human M14 cells assessed as cellular growth at 0.01 uM after 48 hrs by SRB assay relative to control
# [11] = tested on: SF-295; assay: Cytotoxicity against human SF295 cells assessed as cellular growth at 100 uM after 48 hrs by SRB assay relative to control
# [12] = tested on: CCRF-CEM; assay: Cytotoxicity against human CCRF-CEM cells assessed as cellular growth at 0.01 uM after 48 hrs by SRB assay relative to control
# [13] = tested on: HL-60(TB); assay: Cytotoxicity against human HL-60(TB) cells assessed as cellular growth at 0.01 uM after 48 hrs by SRB assay relative to control
# [14] = tested on: SK-MEL-5; assay: Cytotoxicity against human SK-MEL-5 cells assessed as cellular growth at 0.1 uM after 48 hrs by SRB assay relative to control
# [15] = tested on: UO-31; assay: Cytotoxicity against human UO31 cells assessed as cellular growth at 1 uM after 48 hrs by SRB assay relative to control
# [16] = tested on: MDA-MB-468; assay: Cytotoxicity against human MDA-MB-468 cells assessed as cellular growth at 100 uM after 48 hrs by SRB assay relative to control
# [17] = tested on: T47D; assay: Cytotoxicity against human T47D cells after 48 hrs by SRB assay
# [18] = tested on: OVCAR-8; assay: Cytotoxicity against human OVCAR8 cells assessed as cellular growth at 100 uM after 48 hrs by SRB assay relative to control
# [19] = tested on: Hs-578T; assay: Cytotoxicity against human Hs578T cells assessed as cellular growth at 0.01 uM after 48 hrs by SRB assay relative to control
# [20] = tested on: OVCAR-4; assay: Cytotoxicity against human OVCAR4 cells assessed as cellular growth at 0.1 uM after 48 hrs by SRB assay relative to control
# [21] = tested on: NCI-H460; assay: Cytotoxicity against human NCI-H460 cells after 48 hrs by SRB assay; settings: NCI-H460, 48 h
# [22] = tested on: Malme-3M; assay: Cytotoxicity against human MALME-3M cells assessed as cellular growth at 100 uM after 48 hrs by SRB assay relative to control
# [23] = Cytotoxicity against human EKVX cells assessed as cellular growth at 100 uM after 48 hrs by SRB assay relative to control
# [24] = Cytotoxicity against human EKVX cells assessed as cellular growth at 10 uM after 48 hrs by SRB assay relative to control
# [25] = tested on: UACC-257; assay: Cytotoxicity against human UACC257 cells assessed as cellular growth at 0.1 uM after 48 hrs by SRB assay relative to control
# [26] = tested on: OVCAR-8; assay: Cytotoxicity against human OVCAR8 cells assessed as cellular growth at 0.01 uM after 48 hrs by SRB assay relative to control
# [27] = tested on: T47D; assay: Cytotoxicity against human T47D cells assessed as cellular growth at 100 uM after 48 hrs by SRB assay relative to control
# [28] = tested on: NCI-H522; assay: Cytotoxicity against human NCI-H522 cells assessed as cellular growth at 0.01 uM after 48 hrs by SRB assay relative to control
# [29] = tested on: HOP-92; assay: Cytotoxicity against human HOP92 cells assessed as cellular growth at 0.01 uM after 48 hrs by SRB assay relative to control
# [30] = tested on: SF-268; assay: Cytotoxicity against human SF268 cells assessed as cellular growth at 100 uM after 48 hrs by SRB assay relative to control
# [31] = tested on: COLO 205; assay: Cytotoxicity against human COLO205 cells after 48 hrs by SRB assay; settings: COLO 205, 48 h
# [32] = tested on: OVCAR-4; assay: Cytotoxicity against human OVCAR4 cells assessed as cellular growth at 100 uM after 48 hrs by SRB assay relative to control
# [33] = tested on: SK-OV-3; assay: Cytotoxicity against human SKOV3 cells assessed as cellular growth at 10 uM after 48 hrs by SRB assay relative to control
# [34] = tested on: UACC-62; assay: Cytotoxicity against human UACC62 cells assessed as cellular growth at 100 uM after 48 hrs by SRB assay relative to control
# [35] = tested on: SN12C; assay: Cytotoxicity against human SN12C cells after 48 hrs by SRB assay
# [36] = tested on: HCT-116; assay: Cytotoxicity against human HCT116 cells assessed as cellular growth at 10 uM after 48 hrs by SRB assay relative to control
# [37] = tested on: NCI-H460; assay: Cytotoxicity against human NCI-H460 cells assessed as cellular growth at 100 uM after 48 hrs by SRB assay relative to control
# [38] = tested on: KM12; assay: Cytotoxicity against human KM12 cells assessed as cellular growth at 0.01 uM after 48 hrs by SRB assay relative to control
# [39] = read-out: LC50 (the source's name)
# [40] = read-out: pLC50 (the source's name) (converted)
smiles,measurement,setting,value
O=C(CCCn1c2c(sc3ccccc32)c(=O)n2nnc(-c3ccccc3)c12)NCCc1c[nH]cn1,GI50,[1]; read-out: GI50,1.15 µM
same,LC50,[1]; read-out: LC50,6.11 µM
same,TGI,[1]; read-out: TGI,2.65 µM
same,GI50,[1]; read-out: pGI50 (converted),1.15 µM
same,LC50,[1]; read-out: pLC50 (converted),6.17 µM
same,TGI,[1]; read-out: pTGI (converted),2.63 µM
same,Activity,[2],90%
same,Activity,[3],108%
same,Activity,[4],85%
same,Activity,[5],93%
same,Activity,[6],33%
same,Activity,[7],90%
same,Activity,[8],-89%
same,Activity,[9],103%
same,Activity,[10],108%
same,Activity,[11],-65%
same,Activity,[12],56%
same,Activity,[13],93%
same,Activity,[14],90%
same,Activity,[15],69%
same,Activity,[16],-100%
same,GI50,[17]; read-out: GI50,1.27 µM
same,CC50,[17]; [39],30.6 µM
same,TGI,[17]; read-out: TGI,6.37 µM
same,GI50,[17]; read-out: pGI50 (converted),1.26 µM
same,CC50,[17]; [40],30.9 µM
same,TGI,[17]; read-out: pTGI (converted),6.31 µM
same,Activity,[18],-40%
same,Activity,[19],109%
same,Activity,[20],100%
same,GI50,[21]; read-out: GI50,1.59 µM
same,TGI,[21]; read-out: TGI,3.95 µM
same,GI50,[21]; read-out: pGI50 (converted),1.58 µM
same,TGI,[21]; read-out: pTGI (converted),3.98 µM
same,Activity,[22],-72%
same,Activity,[23],-24%
same,Activity,[24],6%
same,Activity,[25],108%
same,Activity,[26],42%
same,Activity,[27],-88%
same,Activity,[28],65%
same,Activity,[29],99%
same,Activity,[30],-69%
same,GI50,[31]; read-out: GI50,0.332 µM
same,CC50,[31]; [39],5.9 µM
same,TGI,[31]; read-out: TGI,2.23 µM
same,GI50,[31]; read-out: pGI50 (converted),0.331 µM
same,CC50,[31]; [40],5.89 µM
same,TGI,[31]; read-out: pTGI (converted),2.24 µM
same,Activity,[32],-87%
same,Activity,[33],-6%
same,Activity,[34],-100%
same,GI50,[35]; read-out: GI50,0.011 µM
same,CC50,[35]; [39],5.51 µM
same,TGI,[35]; read-out: TGI,2.03 µM
same,GI50,[35]; read-out: pGI50 (converted),0.011 µM
same,CC50,[35]; [40],5.5 µM
same,TGI,[35]; read-out: pTGI (converted),2.04 µM
same,Activity,[36],-100%
same,Activity,[37],-15%
same,Activity,[38],106%
O=C(O)CCCn1c2c(sc3ccccc32)c(=O)n2nnc(-c3ccccc3)c12,Activity,[33],90.82%
CN1CCN(CCCn2c3c(sc4ncccc43)c(=O)n3nnc(-c4ccccc4)c23)CC1,GI50,[1]; read-out: GI50,1.53 µM
same,LC50,[1]; read-out: LC50,5.82 µM
same,TGI,[1]; read-out: TGI,2.99 µM
same,GI50,[1]; read-out: pGI50 (converted),1.55 µM
same,LC50,[1]; read-out: pLC50 (converted),5.75 µM
same,TGI,[1]; read-out: pTGI (converted),3.02 µM
same,Activity,[2],90%
same,Activity,[3],94%
same,Activity,[4],89%
same,Activity,[5],82%
same,Activity,[6],97%
same,Activity,[7],98%
same,Activity,[8],-62%
same,Activity,[9],97%
same,Activity,[10],97%
same,Activity,[11],-84%
same,Activity,[12],109%
same,Activity,[13],98%
same,Activity,[14],92%
same,Activity,[15],51%
same,Activity,[16],-91%
same,GI50,[17]; read-out: GI50,19.7 µM
same,CC50,[17]; [39],71.6 µM
same,TGI,[17]; read-out: TGI,37.6 µM
same,GI50,[17]; read-out: pGI50 (converted),20 µM
same,CC50,[17]; [40],70.8 µM
same,TGI,[17]; read-out: pTGI (converted),38 µM
same,Activity,[18],-15%
same,Activity,[19],95%
same,Activity,[20],101%
same,GI50,[21]; read-out: GI50,1.92 µM
same,CC50,[21]; [39],8.13 µM
same,TGI,[21]; read-out: TGI,3.95 µM
same,GI50,[21]; read-out: pGI50 (converted),1.91 µM
same,CC50,[21]; [40],8.13 µM
same,TGI,[21]; read-out: pTGI (converted),3.98 µM
same,Activity,[22],-82%
same,Activity,[23],-80%
same,Activity,[24],-43%
same,Activity,[25],99%
same,Activity,[26],97%
same,Activity,[27],-76%
same,Activity,[28],96%
same,Activity,[29],99%
same,Activity,[30],-86%
same,GI50,[31]; read-out: GI50,1.63 µM
same,CC50,[31]; [39],6.42 µM
same,TGI,[31]; read-out: TGI,3.24 µM
same,GI50,[31]; read-out: pGI50 (converted),1.62 µM
same,CC50,[31]; [40],6.46 µM
same,TGI,[31]; read-out: pTGI (converted),3.24 µM
same,Activity,[32],-70%
same,Activity,[34],-74%
same,GI50,[35]; read-out: GI50,1.81 µM
same,TGI,[35]; read-out: TGI,4.07 µM
same,GI50,[35]; read-out: pGI50 (converted),1.82 µM
same,TGI,[35]; read-out: pTGI (converted),4.07 µM
same,Activity,[36],-92.56%
same,Activity,[37],-72%
same,Activity,[38],101%
